Test results reported in ChEMBL document CHEMBL5230155, “Recent contributions of quinolines to antimalarial and anticancer drug discovery research” (Eur J Med Chem, 2021).
One block for each compound: values may come before it.

Tests used:
[1] = Binding affinity to human nRNP
[2] = Inhibition of PI3K (unknown origin); parameters: species or system Homo sapiens
[3] = target: T1, Tyrosine-protein kinase receptor UFO (Homo sapiens, UniProt P30530); test: Inhibition of AXL (unknown origin)
T1 sequence (P30530 whole entry): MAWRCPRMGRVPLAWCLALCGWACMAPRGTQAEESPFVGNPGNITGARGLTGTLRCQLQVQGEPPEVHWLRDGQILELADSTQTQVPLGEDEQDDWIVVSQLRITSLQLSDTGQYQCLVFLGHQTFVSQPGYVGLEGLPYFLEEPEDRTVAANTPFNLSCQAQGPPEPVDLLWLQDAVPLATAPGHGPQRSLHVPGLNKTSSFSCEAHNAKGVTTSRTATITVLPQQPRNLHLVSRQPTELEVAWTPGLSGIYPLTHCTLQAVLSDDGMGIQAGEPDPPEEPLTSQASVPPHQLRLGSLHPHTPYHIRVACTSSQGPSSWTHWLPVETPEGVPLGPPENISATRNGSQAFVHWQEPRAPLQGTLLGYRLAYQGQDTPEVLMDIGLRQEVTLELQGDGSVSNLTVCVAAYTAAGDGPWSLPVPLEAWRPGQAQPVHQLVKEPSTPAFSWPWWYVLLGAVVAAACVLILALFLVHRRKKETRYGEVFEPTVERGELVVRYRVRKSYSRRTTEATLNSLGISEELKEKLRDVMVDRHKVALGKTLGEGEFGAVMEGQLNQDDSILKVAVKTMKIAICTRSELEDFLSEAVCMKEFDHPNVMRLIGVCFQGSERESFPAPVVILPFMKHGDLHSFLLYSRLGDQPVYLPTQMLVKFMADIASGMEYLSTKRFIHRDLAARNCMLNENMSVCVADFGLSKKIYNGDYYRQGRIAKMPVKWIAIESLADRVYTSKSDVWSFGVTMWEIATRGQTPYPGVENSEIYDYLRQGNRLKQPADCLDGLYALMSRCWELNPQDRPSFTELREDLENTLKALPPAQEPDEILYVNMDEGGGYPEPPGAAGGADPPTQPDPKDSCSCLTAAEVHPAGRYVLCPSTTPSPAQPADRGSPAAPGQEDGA

[4] = target: Lysine-specific demethylase 6B (Homo sapiens) (UniProt O15054); test: Inhibition of JMJD3 (unknown origin) at 25 uM relative to control
[5] = target: Hepatocyte growth factor receptor (Homo sapiens, UniProt P08581); test: Inhibition of c-Met (unknown origin)
Plasmodium falciparum [6] = test: Antimalarial activity against multidrug resistant Plasmodium falciparum Dd2; assay type: functional, organism-based
Plasmodium falciparum [7] = test: Antimalarial activity against CQ-sensitive Plasmodium falciparum D6; assay type: functional, organism-based
HeLa = test: Antiproliferative activity against human HeLa cells; assay type: functional, cell-based
MCF7 = test: Antiproliferative activity against human MCF7 cells; assay type: functional, cell-based; conditions: Homo sapiens, MCF7
DLD-1 = test: Antiproliferative activity against human DLD-1 cells; assay type: functional, cell-based
MDA-MB-453 = test: Antiproliferative activity against human MDA-MB-453 cells; assay type: functional, cell-based
SNU-423 = test: Antiproliferative activity against human SNU-423 cells; assay type: functional, cell-based
RT-112 = test: Antiproliferative activity against human RT-112 cells; assay type: functional, cell-based
Plasmodium falciparum [8] = system: Plasmodium falciparum
Description: Antimalarial activity against CQ-sensitive Plasmodium falciparum NF54

A549 = test: Cytotoxicity against human A549 cells; assay type: functional, cell-based
HCT-116 = test: Cytotoxicity against human HCT-116 cells; assay type: functional, cell-based
RPMI-8226 [9] = test: Cytotoxicity against human RPMI-8226 cells; assay type: functional, cell-based
RPMI-8226 [10] = test: Induction of apoptosis in human RPMI-8226 cells assessed as fold increase in cytochrome c level; assay type: functional
RPMI-8226 [11] = test: Induction of apoptosis in human RPMI-8226 cells assessed as fold increase in caspase-3 level; assay type: functional
Plasmodium falciparum [12] = test: Antimalarial activity against Plasmodium falciparum 3D7; assay type: functional, organism-based
Plasmodium falciparum [13] = test: Antimalarial activity against multidrug resistant Plasmodium falciparum K1; assay type: functional, organism-based

Lysine-specific demethylase 6B (Homo sapiens), sequence (O15054 whole entry): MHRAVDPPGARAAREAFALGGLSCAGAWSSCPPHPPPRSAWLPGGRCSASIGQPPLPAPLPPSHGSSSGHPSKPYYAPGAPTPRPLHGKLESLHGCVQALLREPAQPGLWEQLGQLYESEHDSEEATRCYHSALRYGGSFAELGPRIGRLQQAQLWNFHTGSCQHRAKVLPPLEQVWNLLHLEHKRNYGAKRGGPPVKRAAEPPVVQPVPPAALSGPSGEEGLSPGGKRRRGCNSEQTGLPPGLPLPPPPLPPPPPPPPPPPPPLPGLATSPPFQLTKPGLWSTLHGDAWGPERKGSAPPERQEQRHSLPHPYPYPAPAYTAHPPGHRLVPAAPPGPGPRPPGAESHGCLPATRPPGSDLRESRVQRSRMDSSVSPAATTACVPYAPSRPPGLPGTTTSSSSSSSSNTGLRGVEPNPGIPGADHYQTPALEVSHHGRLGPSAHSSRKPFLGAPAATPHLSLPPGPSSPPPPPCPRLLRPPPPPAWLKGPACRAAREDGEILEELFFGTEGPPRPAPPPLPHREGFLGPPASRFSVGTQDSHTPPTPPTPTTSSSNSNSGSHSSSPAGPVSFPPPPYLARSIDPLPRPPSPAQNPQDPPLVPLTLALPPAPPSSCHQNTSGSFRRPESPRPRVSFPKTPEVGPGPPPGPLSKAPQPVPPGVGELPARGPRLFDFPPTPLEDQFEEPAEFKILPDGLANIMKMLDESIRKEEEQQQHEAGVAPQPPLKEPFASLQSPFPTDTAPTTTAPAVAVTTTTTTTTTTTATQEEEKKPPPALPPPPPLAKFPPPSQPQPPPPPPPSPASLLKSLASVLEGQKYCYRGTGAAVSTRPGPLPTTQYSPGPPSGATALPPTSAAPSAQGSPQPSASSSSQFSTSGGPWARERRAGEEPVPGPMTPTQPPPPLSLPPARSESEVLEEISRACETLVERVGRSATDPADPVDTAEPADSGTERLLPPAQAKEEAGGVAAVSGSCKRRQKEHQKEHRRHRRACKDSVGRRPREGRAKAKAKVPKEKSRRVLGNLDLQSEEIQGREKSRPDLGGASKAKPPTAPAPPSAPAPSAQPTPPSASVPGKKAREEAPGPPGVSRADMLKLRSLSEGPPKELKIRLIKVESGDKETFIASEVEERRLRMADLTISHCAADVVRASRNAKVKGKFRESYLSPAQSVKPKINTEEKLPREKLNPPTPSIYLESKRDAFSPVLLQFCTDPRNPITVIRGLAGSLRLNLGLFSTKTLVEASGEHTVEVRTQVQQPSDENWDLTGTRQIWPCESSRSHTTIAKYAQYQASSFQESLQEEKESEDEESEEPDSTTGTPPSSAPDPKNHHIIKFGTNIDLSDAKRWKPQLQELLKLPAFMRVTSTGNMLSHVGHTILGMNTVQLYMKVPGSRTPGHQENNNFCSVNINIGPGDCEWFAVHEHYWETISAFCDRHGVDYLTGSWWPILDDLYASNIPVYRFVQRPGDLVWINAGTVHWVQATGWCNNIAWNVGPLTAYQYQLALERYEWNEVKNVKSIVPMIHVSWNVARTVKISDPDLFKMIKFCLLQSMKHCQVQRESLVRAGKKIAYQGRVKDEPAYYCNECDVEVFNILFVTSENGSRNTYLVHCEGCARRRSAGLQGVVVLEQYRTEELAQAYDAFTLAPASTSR
Hepatocyte growth factor receptor, sequence (P08581 whole entry): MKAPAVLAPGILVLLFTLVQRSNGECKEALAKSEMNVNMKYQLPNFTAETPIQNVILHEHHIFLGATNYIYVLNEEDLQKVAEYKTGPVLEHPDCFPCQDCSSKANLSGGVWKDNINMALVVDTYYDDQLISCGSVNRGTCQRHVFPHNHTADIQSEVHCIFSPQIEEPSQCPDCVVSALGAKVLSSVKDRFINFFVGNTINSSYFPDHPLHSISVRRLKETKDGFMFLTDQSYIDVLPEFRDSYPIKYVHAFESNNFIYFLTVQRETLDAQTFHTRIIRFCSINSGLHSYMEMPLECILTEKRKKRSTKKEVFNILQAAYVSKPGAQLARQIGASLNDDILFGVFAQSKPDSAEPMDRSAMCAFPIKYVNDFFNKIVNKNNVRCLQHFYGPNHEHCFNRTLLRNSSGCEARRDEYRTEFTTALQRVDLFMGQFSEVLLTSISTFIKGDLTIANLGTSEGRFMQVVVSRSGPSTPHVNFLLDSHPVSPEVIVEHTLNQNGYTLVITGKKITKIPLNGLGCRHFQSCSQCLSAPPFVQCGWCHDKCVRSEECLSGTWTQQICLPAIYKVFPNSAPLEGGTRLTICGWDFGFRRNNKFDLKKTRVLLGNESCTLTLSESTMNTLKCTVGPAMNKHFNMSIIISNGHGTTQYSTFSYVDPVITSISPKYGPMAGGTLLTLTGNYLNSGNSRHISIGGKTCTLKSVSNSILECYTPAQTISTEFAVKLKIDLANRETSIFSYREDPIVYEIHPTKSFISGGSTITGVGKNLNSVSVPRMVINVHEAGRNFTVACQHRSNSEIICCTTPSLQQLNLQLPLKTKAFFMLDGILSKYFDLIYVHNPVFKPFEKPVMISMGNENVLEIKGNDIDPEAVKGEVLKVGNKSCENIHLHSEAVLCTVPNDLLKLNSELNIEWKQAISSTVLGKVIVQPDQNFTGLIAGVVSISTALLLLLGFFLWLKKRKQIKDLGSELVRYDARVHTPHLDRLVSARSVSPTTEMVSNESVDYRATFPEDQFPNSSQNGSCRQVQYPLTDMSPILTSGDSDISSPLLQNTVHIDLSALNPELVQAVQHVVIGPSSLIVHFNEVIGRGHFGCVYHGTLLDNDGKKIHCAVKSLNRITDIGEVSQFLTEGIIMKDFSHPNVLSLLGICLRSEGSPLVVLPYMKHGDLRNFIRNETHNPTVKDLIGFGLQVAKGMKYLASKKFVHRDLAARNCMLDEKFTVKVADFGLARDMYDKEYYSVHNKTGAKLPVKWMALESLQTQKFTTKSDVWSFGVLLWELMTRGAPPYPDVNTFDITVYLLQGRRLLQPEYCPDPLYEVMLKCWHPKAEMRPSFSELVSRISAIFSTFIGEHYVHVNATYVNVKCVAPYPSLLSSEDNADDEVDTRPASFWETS

Kd [1]: 4600 nM
SMILES: O=C(/C=C/c1cc(N2CCOCC2)c2ccccc2n1)c1ccc(O)cc1

IC50 [2]: 450 nM
SMILES: CC(=O)c1cccc(C#Cc2c(C3CC3)nc3ccccc3c2-c2ccc(F)cc2)c1

Kd [1]: 4600 nM
SMILES: O=C(/C=C/c1cc(N2CCOCC2)c2cc([N+](=O)[O-])ccc2n1)c1ccc(O)cc1

IC50 [3]: 21 nM
SMILES: COc1cc2c(Oc3ccc(NS(=O)(=O)c4ccccc4C(F)(F)F)cc3F)ccnc2cc1OCCCN1CCC(C)CC1

inhibition [4]: 0%
SMILES: COc1ccc(F)cc1-c1cnc2c(C(=O)O)ccc(C(=O)O)c2c1

IC50 [5]: 19 nM
SMILES: COc1cc2nccc(Oc3ccc(NC(=O)C4(C(=O)Nc5ccc(F)cc5)CC4)cc3)c2cc1OC(=O)c1ccc([N+](=O)[O-])cc1

IC50 [3]: 27 nM
SMILES: COc1cc2c(Oc3ccc(NS(=O)(=O)c4c(F)cccc4F)cc3F)ccnc2cc1OCCCN1CCN(C)CC1

SMILES: Clc1ccc2c(N3CCN(CCCN4CCN(c5ccnc6cc(Cl)ccc56)CC4)CC3)ccnc2c1 [PIPERAQUINE]
IC50 (Plasmodium falciparum [6]): 1.5 nM | IC50 (Plasmodium falciparum [7]): 0.7 nM

IC50 [3]: 360 nM
SMILES: COc1cc2nccc(Oc3ccc(NC(=O)Nc4ccc(F)cc4F)c(F)c3)c2cc1OC

SMILES: COC[C@H]1OC(=O)c2coc3c2[C@@]1(C)C1=C(C3=O)[C@@H]2CCC(=O)[C@@]2(C)C[C@H]1OC(C)=O [WORTMANNIN]
IC50 [2]: 750 nM

inhibition [4]: 0%
SMILES: COc1cc(-c2cnc3c(C(=O)O)ccc(C(=O)O)c3c2)ccc1F

Kd [1]: 4600 nM
SMILES: COc1ccc(C(=O)/C=C/c2cc(N3CCOCC3)c3ccccc3n2)cc1

IC50 (HeLa): 38 nM | IC50 (MCF7): 38 nM | IC50 (DLD-1): 38 nM
SMILES: COc1ccc2nc(Cl)c(C3CC(c4ccc(C)cc4)=NN3c3nc(-c4ccc(Cl)cc4)cs3)cc2c1 (stereo not given)

inhibition [4]: 0%
SMILES: COc1cc(-c2cnc3c(C(=O)O)ccc(C(=O)O)c3c2)c(OC)nn1

IC50 (HeLa): 38 nM | IC50 (MCF7): 38 nM | IC50 (DLD-1): 38 nM
SMILES: CNC(=O)c1sc(N2N=C(c3ccc(C)cc3)CC2c2cc3cc(OC)ccc3nc2Cl)nc1C (stereo not given)

IC50 (MDA-MB-453): 700 nM | IC50 (SNU-423): 700 nM
SMILES: CCN1CCN(C(=S)SCCCN(c2cc(OC)c(OC)c(OC)c2)S(=O)(=O)c2cccc3cccnc23)CC1
IC50 (RT-112): 700 nM

IC50 (Plasmodium falciparum [8]): 206 nM
SMILES: Clc1ccc2c(N3CC(CN4CCOCC4)N=N3)ccnc2c1 (stereo not given)

inhibition [4]: 0%
SMILES: NS(=O)(=O)c1ccc(-c2cnc3c(C(=O)O)ccc(C(=O)O)c3c2)cc1

IC50 (MDA-MB-453): 700 nM | IC50 (SNU-423): 700 nM
SMILES: COc1cc(N(CCCSC(=S)N2CCN(C)CC2)S(=O)(=O)c2cccc3cccnc23)cc(OC)c1OC
IC50 (RT-112): 700 nM

SMILES: CNS(=O)(=O)Nc1nccc(Cc2c(C)c3ccc(Oc4ncccn4)cc3oc2=O)c1F [AVUTOMETINIB]
GI50 (A549): 3230 nM

IC50 (Plasmodium falciparum [8]): 4560 nM
SMILES: Clc1ccc2c(N3CC(CN4CCCC4)N=N3)ccnc2c1 (stereo not given)

SMILES: [O-]/[N+](=C\c1cc2ccccc2nc1SCc1ccccc1)c1ccccc1
IC50 (HCT-116): 450 nM | IC50 (RPMI-8226 [9]): 450 nM | fold change (FC) (RPMI-8226 [10]): 4 | fold change (FC) (RPMI-8226 [11]): 12

inhibition [4]: 0%
SMILES: O=C(O)c1ccc(-c2cnc3c(C(=O)O)ccc(C(=O)O)c3c2)s1

SMILES: C[C@@H]1CCC2[C@@H](C)[C@H](OC(=O)CCC(=O)NCCNc3ccnc4cc(Cl)ccc34)O[C@@H]3O[C@@]4(C)CC[C@@H]1[C@@]23OO4 (stereo not given in full)
EC50 (Plasmodium falciparum [12]): 0.78 nM | EC50 (Plasmodium falciparum [6]): 0.78 nM | EC50 (Plasmodium falciparum [13]): 0.78 nM

Kd [1]: 4600 nM
SMILES: COc1ccc(C(=O)/C=C/c2cc(N3CCOCC3)c3cc(F)ccc3n2)cc1

IC50 (HeLa): 38 nM | IC50 (MCF7): 38 nM | IC50 (DLD-1): 38 nM
SMILES: CCONC(=O)c1sc(N2N=C(c3ccc(C)cc3)CC2c2cc3cc(OC)ccc3nc2Cl)nc1C (stereo not given)

SMILES: NC(=O)c1cnc2ccc(-c3cnc4ccccc4c3)cc2c1Nc1ccc(N2CCNCC2)c(C(F)(F)F)c1
GI50 (HCT-116): 2800 nM | GI50 (A549): 2800 nM

Kd [1]: 4600 nM
SMILES: COc1ccc(C(=O)/C=C/c2cc(N3CCOCC3)c3cc(OC)ccc3n2)cc1
